# Measurements from ChEMBL document CHEMBL4371048, “Ganocapenoids A-D: Four new aromatic meroterpenoids from Ganoderma capense” (Bioorg Med Chem Lett, 2019).
# pIC50: −log10 of the molar value. Activity calls are given as the source filed them. The calls are words filed in the database; no cut-off is given here.
# Tests used:
# Acetylcholinesterase = Acetylcholinesterase (Homo sapiens, UniProt P22303); experiment: Inhibition of AchE (unknown origin) using acetylthiocholine iodide as substrate preincubated for 20 mins followed by substrate addition and measured every 20 secs for 20 times by Ellman's assay
# PC-12 = experiment: Neurite-outgrowth promoting activity in NGF-differentiated rat PC12 cells assessed as cell differentiation at 10 uM after 72 hrs by phase contrast microscopic method (reference value: 4.72 +/- 1.18%); format: functional, cell-based
# HepG2 [1] = experiment: Increase in PPARgamma expression in human HepG2 cells at 20 to 40 uM after 24 hrs by Western blot analysis; format: functional, cell-based
# HepG2 [2] = experiment: Reduction in lipid accumulation in human HepG2 cells after 24 hrs by Oil-red O staining based microscopic analysis; format: functional, cell-based
# HepG2 [3] = experiment: Increase in LDLR expression in human HepG2 cells at 20 to 40 uM after 24 hrs by Western blot analysis; format: functional, cell-based
# HepG2 [4] = experiment: Increase in ABCG1 mRNA level in human HepG2 cells at 20 to 40 uM after 24 hrs by qPCR analysis; format: functional, cell-based
# HepG2 [5] = experiment: Decrease in HMGCR mRNA level in human HepG2 cells at 20 to 40 uM after 24 hrs by qPCR analysis; format: functional, cell-based
# HepG2 [6] = experiment: Cytotoxicity against human HepG2 cells assessed as effect on cell viability at 10 to 160 uM after 48 hrs by MTT assay; format: cell-based; conditions: hepg2, 48 h
# HepG2 [7] = experiment: Increase in ABCG1 expression in human HepG2 cells at 20 to 40 uM after 24 hrs by Western blot analysis; format: functional, cell-based
# HepG2 [8] = experiment: Increase in PPARgamma mRNA level in human HepG2 cells at 20 to 40 uM after 24 hrs by qPCR analysis; format: functional, cell-based
# HepG2 [9] = experiment: Decrease in HMGCR expression in human HepG2 cells at 20 to 40 uM after 24 hrs by Western blot analysis; format: functional, cell-based
# HepG2 [10] = experiment: Decrease in SREBP2 mRNA level in human HepG2 cells at 20 to 40 uM after 24 hrs by qPCR analysis; format: functional, cell-based
# HepG2 [11] = experiment: Increase in LXRalpha mRNA level in human HepG2 cells at 20 to 40 uM after 24 hrs by qPCR analysis; format: functional, cell-based
# Sequence of Acetylcholinesterase (P22303 whole entry): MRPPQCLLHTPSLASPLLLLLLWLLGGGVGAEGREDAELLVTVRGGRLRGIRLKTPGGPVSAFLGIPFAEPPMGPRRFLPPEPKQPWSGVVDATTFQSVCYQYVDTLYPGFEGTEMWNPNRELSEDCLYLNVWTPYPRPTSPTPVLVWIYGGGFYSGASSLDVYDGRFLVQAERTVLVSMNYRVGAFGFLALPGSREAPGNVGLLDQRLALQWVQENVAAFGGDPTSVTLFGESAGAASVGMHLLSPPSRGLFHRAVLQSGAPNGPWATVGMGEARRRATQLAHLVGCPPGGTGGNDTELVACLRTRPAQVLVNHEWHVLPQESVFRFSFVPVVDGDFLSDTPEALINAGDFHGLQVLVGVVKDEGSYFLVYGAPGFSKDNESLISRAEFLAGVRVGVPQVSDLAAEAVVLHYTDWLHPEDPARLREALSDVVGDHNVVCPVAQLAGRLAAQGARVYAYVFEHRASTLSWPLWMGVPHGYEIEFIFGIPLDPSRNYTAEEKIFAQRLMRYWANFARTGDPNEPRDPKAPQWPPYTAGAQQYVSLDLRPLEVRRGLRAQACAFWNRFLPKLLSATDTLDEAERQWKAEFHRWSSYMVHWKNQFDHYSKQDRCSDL
SMILES,pIC50 (Acetylcholinesterase),Activity (PC-12),also measured
COC(=O)/C(=C\C(=O)c1cc(O)ccc1O)CC/C=C(\C)CCC=C(C)C,5.09,10.95%,–
C/C1=C\CCC2=CC(c3cc(O)ccc3O)(OC/C(CO)=C/CC1)OC2=O (stereo not drawn),–,–,Activity (HepG2 [1]): Active; Activity (HepG2 [2]): Dose-dependent effect; Activity (HepG2 [3]): Active; Activity (HepG2 [4]): Active; Activity (HepG2 [5]): Active; Activity (HepG2 [6]): Non-Toxic; Activity (HepG2 [7]): Active; Activity (HepG2 [8]): Active; Activity (HepG2 [9]): Active; Activity (HepG2 [10]): Active; Activity (HepG2 [11]): Active
C/C(=C\CCC1=C[C@H](c2cc(O)ccc2O)OC1=O)CCC=C(CO)CO,–,6.72%,–
C/C(=C/CCC1=C[C@H](c2cc(O)ccc2O)OC1=O)CO,–,11.67%,–
O=C(O)CC1(CC(=O)c2cc(O)ccc2O)C=C(CO)CCC1 (stereo not drawn),4.59,5.97%,–
COC(=O)/C(=C\C(=O)c1cc(O)ccc1O)CC/C=C(\C)CCC=C(CO)CO,–,5.32%,–
C/C(=C/CC[C@H](CO)c1cc2cc(O)c(O)cc2o1)CO,4.54,7.11%,–
CC1(C)Oc2ccc(O)cc2C2=C1CCC(C(=O)O)=C2,–,4.89%,–
C/C(=C/CCC1=C[C@@H](c2cc(O)ccc2O)OC1=O)CO,–,12.31%,–
C/C(=C\CCC1=C[C@@H](c2cc(O)ccc2O)OC1=O)CCC=C(CO)CO,–,6.19%,–
